Values of other authors, collected in patent US11918665B2, “Method for dyeing keratinous material, comprising the use of an organosilicon compound, a colored effect pigment and a sealing reagent I” (Henkel AG & Co. KGaA, priority 2019, dated 2024).

Details: 25° C.

SMILES	solubility in water	solubility in water (in words)
O=S(=O)([O-])c1ccc(N=Nc2c(O)ccc3ccccc23)cc1.[Na+] [Acid Orange 7, sodium salt of 4-[(2-hydroxy-1-naphthyl)azo]benzene sulphonate]	more than 7 g/L	
O=C([O-])c1c(Cl)c(Cl)c(Cl)c(Cl)c1-c1c2c(Br)cc(=O)c(Br)c-2oc2c(Br)c(O)cc(Br)c12.O=C([O-])c1c(Cl)c(Cl)c(Cl)c(Cl)c1-c1c2c(Br)cc(=O)c(Br)c-2oc2c(Br)c(O)cc(Br)c12.[Na+].[Na+] [Acid Red 92, disodium salt of 3,4,5,6-tetrachloro-2-(1,4,5,8-tetrabromo-6-hydroxy-3-oxoxanthen-9-yl)benzoic acid]	greater than 10 g/L	
O=C([O-])C1=NN(c2ccc(S(=O)(=O)[O-])cc2)C(=O)C1N=Nc1ccc(S(=O)(=O)[O-])cc1.[Na+].[Na+].[Na+] (stereo not shown) [Acid Yellow 23, trisodium salt of 4,5-dihydro-5-oxo-1-(4-sulfophenyl)-4-((4-sulfophenyl)azo)-1H-pyrazole-3-carboxylic acid]		highly soluble in water
Nc1cc(S(=O)(=O)[O-])cc2cc(S(=O)(=O)[O-])c(N=Nc3ccccc3)c(O)c12.[Na+].[Na+] [Acid Red 33, disodium salt of 5-amino-4-hydroxy-3-(phenylazo)-naphthalene-2,7-disulphonate]	2500 µg/mL	
